Reference: publication PMC8786932, “Bicyclic azetidines target acute and chronic stages of Toxoplasma gondii by inhibiting parasite phenylalanyl t-RNA synthetase” (Nature Communications, 2022)
Several values for one entry are separate records, joined by “and”; a condition that tells them apart may be missing. Equal values may be shown once. Read-outs that look alike come from different tables or passages of the source.

What was measured:
[1] = target: T. gondii tachyzoites (type II ME49-FLuc); experiment: Luciferase-based tachyzoite growth assay; format: cell-based, Toxoplasma gondii; parameters: EC50 log inhib vs normalized response: unit: µM; details: for EC50 log inhib vs normalized response: Fig 1A rank order, T. gondii growth
Method: All assays were carried out in a 96-well plate format containing confluent HFF monolayers to support parasite growth. To avoid edge effects, only the inner 60 wells of each plate were used. All compounds described were provided by the Broad Institute as 10 mM stocks in 100% DMSO and stored at −80 °C prior to use. Pyrimethamine (Sigma-Aldrich) was prepared as 5 mM stock in 100% DMSO and stored at −20 °C prior to use.
All statistical analyses were conducted using Prism 9 (GraphPad Software, Inc.). Dose–response inhibition curves for parasite and host cell toxicity screens (EC50 values) were generated using (Log(inhibitor) vs. normalized response—Variable slope) function. […] For multiple comparisons, two-way ANOVA analysis function using either Sidák’s multiple comparisons test or Dunnett’s multiple comparisons test was applied as indicated.

[2] = system: blood-stage P. falciparum; details: Fig 2A Tg_Pf_Cp EC50s; previously reported values, reference not visible in the shown part; cited from earlier work
C. parvum = details: Fig 2A Tg_Pf_Cp EC50s; previously reported values, reference not visible in the shown part; cited from earlier work
[3] = target: N. caninum expressing lacZ; experiment: Neospora caninum β-galactosidase assay; format: cell-based
Method: β-galactosidase assays were conducted using tissue culture grade 96-well plates (TPP) containing confluent monolayers of HFF cells. A 10-point compound dilution series (2-fold) for each compound was generated as described above (2X concentration, 0.1% final DMSO). Growth of the N. caninum strain expressing lacZ was monitoring using a β-galactosidase (β-gal) assay as described in[21] with the following modifications. N. caninum lacZ expressing parasites (1 × 10^3) were added (in 100 μL volume) into 96-well plates containing HFF monolayers to reach final compound concentration (5.0 μM to 0.002 μM in 200 μL total volume). Plates were incubated at 37 °C, 5% CO2 for 72 h prior to completing β-gal assay as previously described[23],[27],[51]. Briefly, parasite containing monolayers were lysed with 1.0% Triton X-100 and β-gal activity determined by adding 1 mM chlorophenolred-β-D-galactopyranoside followed by monitoring absorption at 570 nm on a Cytation 3 multi-mode imager (BioTek), as described.

[4] = system: ex vivo T. gondii ME49-FLuc bradyzoites from tissue cysts of chronically infected mice; experiment: Ex vivo bradyzoite treatment assay (plaque assay); format: cell-based, Toxoplasma gondii; details: Fig 5H top 4, replicates, listed as Pyr
Method: The brains from CBA/J mice chronically infected with the ME49-FLuc strain were harvested, homogenized, and tissue cysts isolated on Percoll gradients, as described previously[9],[27]. Following isolation, purified tissue cysts were treated with acid-pepsin solution ([…] sodium chloride (NaCl), 60 mM hydrochloric acid (HCl) and freshly made pepsin (0.1 mg/mL in 1xPBS) for 10 min at 37 °C. Following acid-pepsin treatment and addition of neutralization buffer (94 mM sodium carbonate (Na2CO3), liberated bradyzoites were equally distributed into 6-well plates with 5 mL culture media containing compounds or vehicle control (0.1–0.2% DMSO final concentration). Plates were incubated undisturbed for 12–14 days followed by fixation in 100% ethanol (ETOH) for 5 min at RT, rinsing with tap water, staining in 0.1% crystal violet solution for 10 min at RT, rinsing in water and air drying. Plaques were quantified on a Zeiss AxioObserver microscope equipped with a ×2.5 objective (Department of Molecular Microbiology Imaging Facility at the Washington University School of Medicine).

[5] = system: T. gondii ME49-FLuc tissue cysts; format: in vivo, Ifngr1-/- mice; details: mouse, in vivo
Method: (§1) Ifngr1^−/− (B6.129S7-Ifngr1 ^tm1Agt /J) and CBA/J mice were purchased from Jackson Laboratory and bred locally at Washington University. Animal studies were conducted according to the U.S. Public Health Service policy on human care and use of laboratory animals. Animals were maintained in facilities approved by the Association for Assessment and Accreditation of Laboratory Animal Care. Studies were approved by Division of Comparative Medicine, Washington University. […] Animals were maintained on a 12:12 light cycle, room temperature maintained at 70℉ ± 2℉, and room humidity maintained at 50% ± 20%.
(§2) Testing of compounds to prevent reactivation of chronic infection was […] to test the efficacy of PheRS inhibitors against chronic infection. In both cases, male and female C57BL/6 Ifngr1^−/− mice were infected by oral gavage with 5 cysts of the ME49-Fluc strain isolated from chronically infected CBA/J mice. […] Animals were monitored for survival and weight loss for 30 days post-treatment.

[6] = system: T. gondii ME49-FLuc chronic infection; format: in vivo, Ifngr1-/- mice; details: mouse, in vivo
Method: as §1, §2

[7] = Fig 2A Tg_Pf_Cp EC50s, read-out: EC50 T. gondii
[8] = Toxoplasma gondii, Table S1, ME49-FLuc tachyzoites, read-out: T. gondii EC50
[9] = Fig S2 source data, read-out: T. gondii (EC50, Fig S2 source data)
[10] = Table S1, ME49-FLuc tachyzoites, read-out: T. gondii EC50
[11] = Fig S2 source data, read-out: N. caninum (EC50, Fig S2 source data)
[12] = Table S3, 72 h, lacZ, read-out: N. caninum EC50
[13] = Toxoplasma gondii, Fig. 2b, stereoisomers of BRD3444, mean of two biological replicates, read-out: Tg EC50

Row | Structure (SMILES) | EC50 log inhib vs normalized response [1] | EC50 [1, 7] | EC50 [2] | EC50 [1, 8] | EC50 [1, 10] | further results
1 | OC[C@@H]1[C@H](c2ccc(C#Cc3ccccc3)cc2)[C@@H]2CN(c3nc4ccccc4s3)CCCCN12 [BRD5349] | 3.944 | 3940 nM | 8320 nM | – | – | –
2 | COc1ccc(NC(=O)N2CCCCN3[C@H](CO)[C@H](c4ccc(C#Cc5ccccc5)cc4)[C@H]3C2)cc1 [BRD3182] | 1.697 | – | – | 1700 nM | – | –
3 | COc1ccc(NC(=O)N2CCCCN3[C@H](CO)[C@H](c4ccc(C#Cc5ccccc5)cc4)[C@]3(CO)C2)cc1 [BRD2936] | 1.687 | 1690 nM | 1870 nM | – | – | EC50 (C. parvum): 1080 nM
4 | COc1ccc(NC(=O)N2CCCCN3[C@H](C2)[C@@H](c2ccc(C#Cc4ccccc4)cc2)[C@@H]3CO)cc1 [BRD3801] | 4.096 | – | – | 4100 nM | – | –
5 | COc1ccc(NC(=O)N2CCCCN3C[C@H](c4ccc(C#Cc5ccccc5)cc4)[C@@H]3C2)cc1 [BRD3914] | 0.07697 | – | 13 nM | – | 76 nM | EC50 [1, 9]: 77 nM; EC50 (C. parvum): 62 nM; EC50 [3, 11]: 193 nM; EC50 [3, 12]: 193 nM
6 | COc1ccc(NC(=O)N2C[C@@H](O)[C@@H](O)CN3[C@H](CN(C)C)[C@H](c4ccc(C#Cc5ccccc5)cc4)[C@@H]3C2)cc1 [BRD5018] | 0.03927 | – | 13 nM | – | 39 nM | EC50 [1, 9]: 39.3 nM; EC50 [3, 11]: 29.9 nM; EC50 [3, 12]: 29 nM
7 | COc1ccc(NC(=O)N2CCCCN3[C@H](CO)[C@H](c4ccc(C#Cc5ccccc5C#N)cc4)[C@@H]3C2)cc1 [BRD4873] | 0.2134 | 213 nM | 261 nM | – | 213 nM | –
8 | CCc1nc(N)nc(N)c1-c1ccc(Cl)cc1 [Pyrimethamine, reference compound] | 0.2476 | – | – | 247 nM | – | EC50 ([1]; Toxoplasma gondii, ME49-FLuc, 10-point dose-response, two biological replicates, read-out: EC50, T. gondii tachyzoite growth): 248 nM; Ex vivo bradyzoite plaques, normalised to DMSO = 100 ([4]; Constant treatment): 2.0 and 0.5 and 1.9; Ex vivo bradyzoite plaques, normalised to DMSO = 100 ([4]; Washout): 115.2 and 93 and 95.5
9 | COc1ccc(NC(=O)N2CCCCCN3[C@H](CO)[C@H](c4ccc(C#Cc5ccccc5)cc4)[C@@H]3C2)cc1 [BRD0185] | 0.1693 | – | 87 nM | – | 169 nM | EC50 [1, 9]: 169 nM; EC50 (C. parvum): 33 nM; EC50 [3, 11]: 156 nM; EC50 [3, 12]: 156 nM
10 | COc1ccc(NC(=O)N2CCCCN3[C@H](CN4CCN(C)CC4)[C@H](c4ccc(C#Cc5ccccc5)cc4)[C@@H]3C2)cc1 [BRD6479] | 0.4249 | 425 nM | 158 nM | – | 424 nM | –
11 | COc1ccc(NC(=O)N2CCCCN3[C@H](CN4CCC4)[C@H](c4ccc(C#Cc5ccccc5)cc4)[C@@H]3C2)cc1 [BRD8493] | 0.4416 | 442 nM | 116 nM | – | 441 nM | –
12 | COc1ccc(NC(=O)N2CCCN3[C@H](CO)[C@H](c4ccc(C#Cc5ccccc5)cc4)[C@@H]3C2)cc1 [BRD9599] | 1.748 | 1750 nM | 850 nM | – | – | EC50 (C. parvum): 250 nM
13 | O=C(Nc1cccc(F)c1)N1CCCCN2[C@H](CO)[C@H](c3ccc(C#Cc4cccnc4)cc3)[C@@H]2C1 [BRD5999] | 0.4926 | – | – | – | 492 nM | –
14 | COc1ccc(NC(=O)N2CCCCN3[C@@H](CO)[C@@H](c4ccc(C#Cc5ccccc5)cc4)[C@@H]3C2)cc1 [BRD2430] | 1.548 | – | – | 1550 nM | – | –
15 | Nc1ccc(S(=O)(=O)Nc2ncccn2)cc1 [sulfadiazine, reference compound] | – | – | – | – | – | mean survival [5]: 10 days; Days (survival time of single mouse) [6]: 7 days and 9 days and 29 days and 11 days and 5 days; Survival event flag of single mouse (1 or 0) [6]: 1 and 0
16 | COc1ccc(NC(=O)N2CCCCN3[C@H](CO)[C@@H](c4ccc(C#Cc5ccccc5)cc4)[C@@H]3C2)cc1 [BRD2574] | 1.487 | – | – | 1490 nM | – | –
17 | COc1ccc(NC(=O)N2CCCCN3[C@H](CO)[C@@H](c4ccc(C#Cc5ccccc5)cc4)[C@H]3C2)cc1 [BRD8194] | 2.955 | – | – | 2960 nM | – | –
18 | COc1ccc(NC(=O)N2CCCCN3[C@H](CO)[C@H](c4ccc(C#CC5CC5)cc4)[C@@H]3C2)cc1 [BRD5774] | 1.609 | 1610 nM | 12200 nM | – | – | –
19 | COc1ccc(NC(=O)N2CCCCN3[C@H](C2)[C@H](c2ccc(C#Cc4ccccc4)cc2)[C@@H]3CO)cc1 [BRD4569] | 3.376 | – | – | 3380 nM | – | EC50 [1, 13]: 3370 nM
20 | O=C(NC1CCC1)N1CCCCN2[C@H](CO)[C@H](c3ccc(C#Cc4ccccc4)cc3)[C@@H]2C1 [BRD8260] | 2.575 | 2580 nM | 19500 nM | – | – | –
21 | COc1ccc(NC(=O)N2CCCCN3[C@@H](CO)[C@H](c4ccc(C#Cc5ccccn5)cc4)[C@@H]3C2)cc1 [BRD9257] | 0.6463 | 646 nM | 155 nM | – | 646 nM | –
22 | COc1ccc(NC(=O)N2CCCCN3[C@@H](CO)[C@H](c4ccc(C#Cc5ccccc5)cc4)[C@@H]3C2)cc1 [BRD9995] | 0.1187 | – | – | 118 nM | – | EC50 [1, 13]: 119 nM
